Results reported in PubChem BioAssay (NCI).
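Each compound was tested at five concentrations against cells in 96-well plates for 48 hours. The concentration for full growth arrest is given as TGI.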

Experiments:
Test in all cases: DTP human tumour cell line panel, 48 h
[1] = test system: HCC-2998 colon
[2] = test system: OVCAR-5 ovarian
[3] = test system: CCRF-CEM leukemia
[4] = test system: NCI-H460 lung
[5] = test system: U251 CNS
[6] = test system: HOP-92 NSCLC
[7] = test system: MCF7 breast
[8] = test system: MDA-N
[9] = test system: RPMI-8226 leukemia
[10] = test system: NCI-H23 lung
[11] = test system: HCT-116 colon
[12] = test system: A498 renal
[13] = test system: KM12 colon
[14] = test system: MDA-MB-231 breast
[15] = test system: EKVX NSCLC
[16] = test system: SN12C renal
[17] = test system: TK-10 renal
[18] = test system: SK-MEL-5 melanoma
[19] = test system: SNB-75 CNS
[20] = test system: HS 578T breast
[21] = test system: SK-OV-3 ovarian
[22] = test system: K-562 leukemia
[23] = test system: OVCAR-8 ovarian
[24] = test system: DU-145 prostate
[25] = test system: NCI-H522 lung
[26] = test system: SNB-19 CNS
[27] = test system: SK-MEL-2 melanoma
[28] = test system: T-47D breast
[29] = test system: HT29 colon
[30] = test system: NCI/ADR-RES ovarian
[31] = test system: ACHN renal
[32] = test system: PC-3 prostate
[33] = test system: SR leukemia
[34] = test system: SK-MEL-28 melanoma
[35] = test system: A549 NSCLC
[36] = test system: RXF 393 renal
[37] = test system: UO-31 renal
[38] = test system: BT-549 breast
[39] = test system: M14 melanoma
[40] = test system: UACC-257 melanoma
[41] = test system: NCI-H226 lung
[42] = test system: OVCAR-4 ovarian
[43] = test system: CAKI-1 renal
[44] = test system: SF-268 CNS
[45] = test system: SF-539 CNS
[46] = test system: OVCAR-3 ovarian
[47] = test system: 786-0 renal
[48] = test system: SW-620 colon
[49] = test system: HOP-62 NSCLC
[50] = test system: IGROV1 ovarian
[51] = test system: COLO 205 colon
[52] = test system: LOX IMVI melanoma
[53] = test system: HL-60(TB) leukemia
[54] = test system: MOLT-4 leukemia
[55] = test system: HCT-15 colon
[56] = test system: SF-295 CNS
[57] = test system: MDA-MB-435
[58] = test system: UACC-62 melanoma
[59] = test system: MALME-3M melanoma

Question: Which results are given for O=CNc1ccc2c(c1)C(=O)c1ccccc1-2?
Answer: TGI [1]: > 100 µM; TGI [2]: > 100 µM; TGI [3]: > 100 µM; TGI [4]: > 100 µM; TGI [5]: > 100 µM; TGI [6]: > 100 µM; TGI [7]: > 100 µM; TGI [8]: > 100 µM; TGI [9]: > 100 µM; TGI [10]: > 100 µM; TGI [11]: > 100 µM; TGI [12]: > 100 µM; TGI [13]: > 100 µM; TGI [14]: > 100 µM; TGI [15]: 43.1 µM; TGI [16]: > 100 µM; TGI [17]: > 100 µM; TGI [18]: > 100 µM; TGI [19]: > 100 µM; TGI [20]: > 100 µM; TGI [21]: > 100 µM; TGI [22]: > 100 µM; TGI [23]: > 100 µM; TGI [24]: > 100 µM; TGI [25]: > 100 µM; TGI [26]: > 100 µM; TGI [27]: > 100 µM; TGI [28]: > 100 µM; TGI [29]: > 100 µM; TGI [30]: > 100 µM; TGI [31]: > 100 µM; TGI [32]: > 100 µM; TGI [33]: > 100 µM; TGI [34]: > 100 µM; TGI [35]: > 100 µM; TGI [36]: > 100 µM; TGI [37]: > 100 µM; TGI [38]: > 100 µM; TGI [39]: > 100 µM; TGI [40]: > 100 µM; TGI [41]: > 100 µM; TGI [42]: > 100 µM; TGI [43]: > 100 µM; TGI [44]: > 100 µM; TGI [45]: > 100 µM; TGI [46]: > 100 µM; TGI [47]: > 100 µM; TGI [48]: > 100 µM; TGI [49]: > 100 µM; TGI [50]: > 100 µM; TGI [51]: > 100 µM; TGI [52]: > 100 µM; TGI [53]: > 100 µM; TGI [54]: > 100 µM; TGI [55]: > 100 µM; TGI [56]: > 100 µM; TGI [57]: > 100 µM; TGI [58]: > 100 µM

Question: Which results are given for NC(N)=Nc1ccc(CC(N)NCC(=O)O)cc1 (stereo not given)?
Answer: TGI [1]: > 25 µM; TGI [2]: > 25 µM; TGI [3]: > 25 µM; TGI [5]: > 25 µM; TGI [6]: > 25 µM; TGI [7]: > 25 µM; TGI [8]: > 25 µM; TGI [9]: > 25 µM; TGI [10]: > 25 µM; TGI [11]: > 25 µM; TGI [12]: > 25 µM; TGI [13]: > 25 µM; TGI [14]: > 25 µM; TGI [15]: > 25 µM; TGI [16]: > 25 µM; TGI [59]: > 25 µM; TGI [17]: > 25 µM; TGI [18]: > 25 µM; TGI [19]: > 25 µM; TGI [20]: > 25 µM; TGI [21]: > 25 µM; TGI [22]: > 25 µM; TGI [23]: > 25 µM; TGI [24]: > 25 µM; TGI [25]: > 25 µM; TGI [27]: > 25 µM; TGI [28]: > 25 µM; TGI [29]: > 25 µM; TGI [30]: > 25 µM; TGI [31]: > 25 µM; TGI [32]: > 25 µM; TGI [33]: > 25 µM; TGI [34]: > 25 µM; TGI [35]: > 25 µM; TGI [36]: > 25 µM; TGI [37]: > 25 µM; TGI [38]: > 25 µM; TGI [39]: > 25 µM; TGI [40]: > 25 µM; TGI [41]: > 25 µM; TGI [42]: > 25 µM; TGI [43]: > 25 µM; TGI [44]: > 25 µM; TGI [46]: > 25 µM; TGI [47]: > 25 µM; TGI [48]: > 25 µM; TGI [49]: > 25 µM; TGI [50]: > 25 µM; TGI [51]: > 25 µM; TGI [52]: > 25 µM; TGI [53]: > 25 µM; TGI [54]: > 25 µM; TGI [55]: > 25 µM; TGI [56]: > 25 µM; TGI [57]: > 25 µM; TGI [58]: > 25 µM

Question: Which results are given for CCOC(=O)c1c(CN2CCCC2)n(-c2ccccc2)c2cc(Br)c(O)cc12?
Answer: TGI [2]: 36.5 µM; TGI [3]: 34.8 µM; TGI [4]: 32.9 µM; TGI [5]: 30.4 µM; TGI [6]: 44 µM; TGI [7]: 39.5 µM; TGI [8]: 32.2 µM; TGI [9]: 39.5 µM; TGI [10]: 42.8 µM; TGI [11]: 30.3 µM; TGI [12]: 30.6 µM; TGI [13]: 32.2 µM; TGI [14]: 39.7 µM; TGI [15]: 39.7 µM; TGI [16]: 30.2 µM; TGI [59]: 35.5 µM; TGI [17]: 48 µM; TGI [18]: 26.4 µM; TGI [19]: 36.7 µM; TGI [20]: 74.9 µM; TGI [21]: 66.5 µM; TGI [22]: 41.2 µM; TGI [23]: 49.1 µM; TGI [24]: 39.5 µM; TGI [25]: 36.3 µM; TGI [26]: 33.3 µM; TGI [27]: 33.3 µM; TGI [28]: 47 µM; TGI [29]: 18.2 µM; TGI [30]: 57.9 µM; TGI [31]: 44.9 µM; TGI [32]: 48.5 µM; TGI [33]: 42.8 µM; TGI [34]: 29.7 µM; TGI [35]: 32 µM; TGI [36]: 25.6 µM; TGI [37]: 24.5 µM; TGI [38]: 55.8 µM; TGI [39]: 29 µM; TGI [40]: 32.8 µM; TGI [42]: 31.6 µM; TGI [43]: 40.8 µM; TGI [44]: 49.7 µM; TGI [46]: 30.3 µM; TGI [47]: 31 µM; TGI [48]: 42.5 µM; TGI [49]: 26.7 µM; TGI [50]: 33.5 µM; TGI [51]: 22.4 µM; TGI [52]: 29.8 µM; TGI [53]: 27.5 µM; TGI [54]: 41.7 µM; TGI [55]: 40.5 µM; TGI [56]: 32 µM; TGI [57]: 33.2 µM; TGI [58]: 31.1 µM
